Measurements as given in patent publication US20220117957A1, “TREATMENT METHOD FOR CORONAVIRUS INFECTION” (priority 2020, published 2022).

Experiments:
[1] = organic solvents; water at acidic pH; cited from earlier work
SARS-CoV-2 = assay type: in vivo; conditions: individuals infected with SARS-CoV-2 treated with Rifampin

SMILES: CO[C@H]1/C=C/O[C@@]2(C)Oc3c(C)c(O)c4c(O)c(c(/C=N/N5CCN(C)CC5)c(O)c4c3C2=O)NC(=O)/C(C)=C\C=C\[C@H](C)[C@H](O)[C@@H](C)[C@@H](O)[C@@H](C)[C@H](OC(C)=O)[C@@H]1C [Rifampin]
- solubility [1]: soluble in organic solvents and in water at acidic pH
- recovery times (SARS-CoV-2): much faster recovery times
- severity of symptoms (SARS-CoV-2): less severe symptoms
